Key:
purified HDAC8 = target: T1, purified HDAC8 (Homo sapiens, UniProt Q9BY41); assay: small-molecule microarray; assay type: binding; conditions: SMM screen
T1 sequence (Q9BY41 1-377): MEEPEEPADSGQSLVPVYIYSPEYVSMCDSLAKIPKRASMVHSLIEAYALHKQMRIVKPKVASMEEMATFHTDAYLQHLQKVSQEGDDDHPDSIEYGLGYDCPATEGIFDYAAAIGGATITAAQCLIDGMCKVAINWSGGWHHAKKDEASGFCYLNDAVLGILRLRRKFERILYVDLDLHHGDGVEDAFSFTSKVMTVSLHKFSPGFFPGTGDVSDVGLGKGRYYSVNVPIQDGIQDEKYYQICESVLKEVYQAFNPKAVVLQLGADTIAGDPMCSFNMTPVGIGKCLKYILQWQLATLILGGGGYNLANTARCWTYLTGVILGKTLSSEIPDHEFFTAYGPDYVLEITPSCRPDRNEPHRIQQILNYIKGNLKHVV

trypsin = trypsin counter screen
[1] = system: acetylated α-tubulin in HeLa cells; assay: immunofluorescence, acetylated α-tubulin in HeLa cells; assay type: cell-based; conditions: 16 h, normalized to DMSO control
[2] = system: acetylated lysine in HeLa cells; assay: immunofluorescence, acetylated lysine in HeLa cells; assay type: cell-based; conditions: 16 h, normalized to DMSO control

| binding to purified HDAC8 on small-molecule microarray (purified HDAC8) | SMILES | interference with the proteolytic activity of trypsin (trypsin) | acetylated α-tubulin level [1] | acetylated lysine level [2] |
| --- | --- | --- | --- | --- |
| binder | CC(=O)Nc1ccc(C(=O)CSc2nc(C)cc(O)n2)cc1 [Compound 7] | does not interfere with the proteolytic activity of trypsin | – | – |
| – | Nc1ccccc1NC(=O)c1ccc(CNC(=O)OCc2cccnc2)cc1 [MS-275] | – | little change in tubulin acetylation | increased global lysine acetylation |
| – | O=C(CCCCCCC(=O)Nc1ccccc1)NO [SAHA, suberoylanilide hydroxamic acid] | – | increases both global lysine and α-tubulin acetylation levels | increases both global lysine and α-tubulin acetylation levels |

— article PMC3248787 (Bioorganic & medicinal chemistry letters, 2011)
